For 51 compounds, IC50 results are on record in PubChem BioAssay AID743154 (The Scripps Research Institute Molecular Screening Center, 2013).

Calls of active or inactive are those of the source. How the calls were made is not given here.

This assay deals with methionyl-tRNA synthetase (Trypanosoma brucei brucei). Briefly: inhibition of trypanosomal methionyl-tRNA synthetase – biochemical, fluorescence polarization, dose response, round 1, orthogonal assay for T. brucei MetRS inhibitor project, late-stage follow-up (AID 743154). (In general: Fluorescence polarisation rises when a labelled molecule tumbles more slowly, as on binding a larger partner.)
Regarding `CCC(=O)c1cn(CC(=O)Nc2cccc(C(F)(F)F)c2)c2ccccc12`, the IC50 (in general, the concentration that inhibits the measured activity by half) was > 39.5 µM (inactive).

Regarding `O=C(CSc1nnc2c(n1)[nH]c1ccc(Br)cc12)NCc1ccccc1`, the IC50 is 0.666 µM.

For `CC(=O)N(CCc1ccccc1)C1CC(=O)N(c2ccc(Cl)cc2)C1=O` (stereo unspecified), the IC50 is > 39.5 µM (inactive).

Take `CCCCn1c(CCNC(=O)c2ccc(F)cc2)nc2ccccc21`: the IC50 is > 39.5 µM (inactive).

For `CCN(C(=O)Cn1cc(C(=O)C(=O)N2CCOCC2)c2ccccc21)c1ccccc1`, the IC50 was > 119 µM (inactive).

For `O=C(Cn1cc(C(=O)C(=O)N2CCOCC2)c2ccccc21)NCc1ccccc1`, the IC50 is > 119 µM (inactive).

Turning to `CCc1ccc2c(c1)c1nnc(SCC(=O)Nc3ccc4c(c3)OCO4)nc1n2C`, the IC50 is > 119 µM (inactive).

Take `CNC(=S)N(CCc1ccccc1)C1CC(=O)N(c2ccc(Br)cc2)C1=O` (stereo unspecified): the IC50 was 0.326 µM.

In the case of `COc1ccc(CCN(C(=O)c2cccc(F)c2)C2CC(=O)N(c3ccc(Br)cc3)C2=O)cc1` (stereo unspecified), the IC50 was > 119 µM (inactive).

As to `CCc1ccc2[nH]c3nc(SCC(=O)NCc4cccc(OC)c4)nnc3c2c1`, the IC50 was > 39.5 µM (inactive).

Regarding `COc1ccccc1NC(=O)Cn1cc(C(=O)C(=O)N2CCOCC2)c2ccccc21`, the IC50 is > 119 µM (inactive).

Consider `CCN(CC)C(=O)C(=O)c1cn(CC(=O)N2CCCc3ccccc32)c2ccccc12`, for which the IC50 was > 119 µM (inactive).

With `COc1ccc(CCN(C(=S)Nc2ccccc2)C2CC(=O)N(c3ccc(Cl)cc3)C2=O)cc1` (stereo unspecified), the IC50 was 0.676 µM.

Take `CCN(CCc1nc2ccc(C)cc2[nH]1)C(=O)c1ccc2ncccc2c1`: the IC50 was > 119 µM (inactive).

Consider `O=C(Cn1cc(C(=O)C2CC2)c2ccccc21)Nc1cccc(C(F)(F)F)c1`, for which the IC50 is > 39.5 µM (inactive).

For `Cc1ccc(CNC(=O)CSc2nnc3c(n2)[nH]c2ccc(C)cc23)cc1`, the IC50 entry is “inactive”.

In the case of `O=C(Nc1ccc(F)c(Cl)c1)C1CC(=O)n2c(nc3ccccc32)N1` (stereo unspecified), the IC50 is 1.77 µM.

With `Cc1cccc2[nH]c(CCN(C)C(=O)c3cccc(C4CCNC4)c3)nc12` (stereo unspecified), the IC50 was > 119 µM (inactive).

For `CC1Cc2ccccc2N1C(=O)Cn1cc(C(=O)C(=O)N2CCOCC2)c2ccccc21` (stereo unspecified), the IC50 is > 119 µM (inactive).

Turning to `CC(=O)N(CCc1ccccc1)C1CC(=O)N(c2ccc(Br)cc2)C1=O` (stereo unspecified), the IC50 is > 39.5 µM (inactive).

In the case of `COc1ccccc1NC(=O)CSc1nnc2c(n1)[nH]c1ccc(C)cc12`, the IC50 entry was “inactive”.

Consider `O=C(NCCc1nc2ccccc2[nH]1)c1ccc(Cl)cc1`, for which the half-maximal inhibitory concentration (IC50) is 5.37 µM.

For the compound `CCN(CC)C(=O)C(=O)c1cn(CC(=O)Nc2cccc(C(F)(F)F)c2)c2ccccc12`, the IC50 was 0.167 µM.

In the case of `CCN(CC)C(=O)C(=O)c1cn(CC(=O)N(CC)c2ccccc2)c2ccccc12`, the IC50 is > 39.5 µM (inactive).

Take `COc1ccc(NC(=O)C2CC(=O)n3c(nc4ccccc43)N2)cc1` (stereo unspecified): the IC50 is > 119 µM (inactive).

On to `O=C(NCCc1nc2ccccc2[nH]1)c1ccc(Cl)c(Cl)c1`, for which the 50% inhibitory concentration (IC50) is 0.901 µM.

For the compound `O=C(Cn1cc(C(=O)COc2ccccc2)c2ccccc21)Nc1cccc(C(F)(F)F)c1`, the IC50 is > 39.5 µM (inactive).

With `CCN(CC)C(=O)C(=O)c1cn(CC(=O)Nc2ccccc2OC)c2ccccc12`, the IC50 was > 119 µM (inactive).

Turning to `Cc1cccc(NC(=O)C2CC(=O)n3c(nc4ccccc43)N2)c1` (stereo unspecified), the IC50 is > 39.5 µM (inactive).

For `O=C(Cn1cc(C(=O)c2ccco2)c2ccccc21)Nc1cccc(C(F)(F)F)c1`, the IC50 is 2.92 µM.

For the compound `Cc1cccc(C(=O)NCCc2nc3ccccc3n2CCOc2ccccc2)c1`, the IC50 is > 39.5 µM (inactive).

As for `CC(C)c1nc2ccc(C(=O)N(C)CCc3nc4ccc(F)cc4[nH]3)cc2o1`, the IC50 is > 119 µM (inactive).

Turning to `Cc1ccc2[nH]c3nc(SCC(=O)Nc4ccc(C(F)(F)F)cc4)nnc3c2c1`, the IC50 is > 119 µM (inactive).

Consider `COCCc1nc2ccc(C(=O)NCCc3nc4ccc(OC)cc4[nH]3)cc2o1`, for which the IC50 was > 39.5 µM (inactive).

In the case of `Cc1ccc(C(=O)NCCc2nc3ccccc3[nH]2)cc1C`, the IC50 was > 13.2 µM (inactive).

In the case of `CCN(CC)C(=O)C(=O)c1cn(CC(=O)Nc2cccc(OC)c2)c2ccccc12`, the IC50 is 3.5 µM.

For the compound `COc1ccc(NC(=O)CSc2nnc3c4cc(C)ccc4n(C)c3n2)cc1`, the IC50 is > 119 µM (inactive).

With `Cc1cccc2[nH]c(C3CCCN(C(=O)c4cccc5cccnc45)C3)nc12` (stereo unspecified), the IC50 was > 39.5 µM (inactive).

As to `Cn1c(CCNC(=O)c2ccc(Cl)cc2)nc2ccccc21`, the IC50 is > 39.5 µM (inactive).

On to `COc1cccc(NC(=O)C2CC(=O)n3c(nc4ccccc43)N2)c1` (stereo unspecified), for which the IC50 is > 13.2 µM (inactive).

For `O=C(C(=O)N1CCOCC1)c1cn(CC(=O)N2CCCc3ccccc32)c2ccccc12`, the IC50 is > 13.2 µM (inactive).

For `CC(=O)c1cn(CC(=O)Nc2cccc(C(F)(F)F)c2)c2ccccc12`, the IC50 is > 39.5 µM (inactive).

In the case of `O=C(NCCc1nc2ccccc2[nH]1)c1c(F)cccc1F`, the IC50 was > 119 µM (inactive).

Turning to `O=C(Cn1cc(C(=O)c2ccccc2)c2ccccc21)Nc1cccc(C(F)(F)F)c1`, the IC50 result was “inactive”.

Take `O=C(CSC1CC(=O)N(c2cccc(Cl)c2)C1=O)Nc1ccc(Br)cc1` (stereo unspecified): the IC50 entry was “inactive”.

`Cc1cc2cc(C(=O)N3CCCC(c4nc5ccccc5[nH]4)C3)ccc2o1` (stereo unspecified): the IC50 is > 39.5 µM (inactive).

On to `O=C(Cn1cc(C(=O)C(=O)N2CCOCC2)c2ccccc21)NCC1CCCO1` (stereo unspecified), for which the IC50 was > 119 µM (inactive).

`O=C1CC(NCCc2ccccc2)C(=O)N1c1ccc(Br)cc1` (stereo unspecified): the IC50 was > 119 µM (inactive).

For `Cc1ccc(C(=O)NCCc2nc3ccccc3[nH]2)cc1[N+](=O)[O-]`, the concentration for half-maximal inhibition (IC50) is 3.55 µM.

Consider `O=C(NCCc1nc2ccccc2[nH]1)c1ccc(Cl)cc1Cl`, for which the concentration for half-maximal inhibition (IC50) is 1.35 µM.

Regarding `O=C(Cn1cc(C(=O)C(=O)N2CCCC2)c2ccccc21)Nc1ccccc1`, the IC50 is > 119 µM (inactive).
